# Data as given in patent US20240083908A1, “TETRAHYDROTHIENOPYRIMIDINESULFONAMIDE COMPOUNDS” (priority 2020, published 2024).
# Biological target: human recombinant PARG (Homo sapiens (Human), UniProt Q86W56)
# Assay: PARG Activity Assay
# Format: biochemical
# Details: recombinant human PARG 0.0185 nM, 1 hour pre-incubation, poly (ADP-ribose) substrate-coated plate, Abs 450
# Procedure: In order to evaluate the PARG inhibitory activity of the present compound, the inhibitory activity of each test compound against human recombinant PARG was measured. The specific procedure is described below.
# Test compound was dissolved in dimethyl sulfoxide and prepared a 10 mM stock solution.
# PARG Activity Assay was performed in Streptavidin-coated 96-well plates. […] The substrate solution was added to the 96-well plate at the volume of 200 micro liter per well and incubated for 3 hours at room temperature. After the incubation, the substrate solution was discarded and assay plate was washed 4 times with 220 micro liter of PBS containing 0.1% Tween20 (PBST). […] The diluted enzyme solution was pre-incubated with compounds for 1 hour at room temperature in a 96-well plate and transferred 100 micro liter per well to the poly (ADP-ribose) substrate-coated assay plate. The plate was incubated for 1 hour at 25° C. and then washed 4 times with 220 micro liters of PBST. For the detection of non-digested poly (ADP-ribose) polymer on the plate, mouse anti-poly (ADP-ribose) antibody diluted with 0.2% BSA containing PBS was added 100 micro liters per well and incubated 1 hour at room temperature. Plate was washed 4 times with TBST and 100 micro liter of HRP-labeled anti-mouse Ig antibody was added to the wells. Plate was incubated for 30 minutes at room temperature and then washed 4 times with PBST. For the detection 100 micro liters of TMB substrate solution was added to the wells. After sufficient color development, reaction was stopped by addition of 50 micro liter of 0.2 M […]. The 450 nm absorbance (Abs 450) of each well was read with a micro plate reader. The assay was performed by duplicated and average of 2 independent assays were used for the determination of PARG inhibitor y activity.
# Wells treated with dimethyl sulfoxide instead of test compound solution were designated as a Negative Control of assay
# Wells treated with 0.2% BSA containing PBS instead of recombinant human PARG protein and with dimethyl sulfoxide instead of test compound solution were designated as a Positive Control of assay.
# The PARG Inhibitory Activity (%) was determined by the following formulation.
# PARG Inhibitory Activity (%)=[(AbsX−AbsA)/(AbsB−AbsA)]×100
# (wherein, • AbsA is absorbance (Abs 450) of Negative Control wells • AbsB is absorbance (Abs 450) of Positive Control wells • AbsX is absorbance (Abs 450) of wells treated with test compound.)
# In Table, Ex indicates an Example number shown below.
# Chain of human recombinant PARG (Q86W56 whole entry): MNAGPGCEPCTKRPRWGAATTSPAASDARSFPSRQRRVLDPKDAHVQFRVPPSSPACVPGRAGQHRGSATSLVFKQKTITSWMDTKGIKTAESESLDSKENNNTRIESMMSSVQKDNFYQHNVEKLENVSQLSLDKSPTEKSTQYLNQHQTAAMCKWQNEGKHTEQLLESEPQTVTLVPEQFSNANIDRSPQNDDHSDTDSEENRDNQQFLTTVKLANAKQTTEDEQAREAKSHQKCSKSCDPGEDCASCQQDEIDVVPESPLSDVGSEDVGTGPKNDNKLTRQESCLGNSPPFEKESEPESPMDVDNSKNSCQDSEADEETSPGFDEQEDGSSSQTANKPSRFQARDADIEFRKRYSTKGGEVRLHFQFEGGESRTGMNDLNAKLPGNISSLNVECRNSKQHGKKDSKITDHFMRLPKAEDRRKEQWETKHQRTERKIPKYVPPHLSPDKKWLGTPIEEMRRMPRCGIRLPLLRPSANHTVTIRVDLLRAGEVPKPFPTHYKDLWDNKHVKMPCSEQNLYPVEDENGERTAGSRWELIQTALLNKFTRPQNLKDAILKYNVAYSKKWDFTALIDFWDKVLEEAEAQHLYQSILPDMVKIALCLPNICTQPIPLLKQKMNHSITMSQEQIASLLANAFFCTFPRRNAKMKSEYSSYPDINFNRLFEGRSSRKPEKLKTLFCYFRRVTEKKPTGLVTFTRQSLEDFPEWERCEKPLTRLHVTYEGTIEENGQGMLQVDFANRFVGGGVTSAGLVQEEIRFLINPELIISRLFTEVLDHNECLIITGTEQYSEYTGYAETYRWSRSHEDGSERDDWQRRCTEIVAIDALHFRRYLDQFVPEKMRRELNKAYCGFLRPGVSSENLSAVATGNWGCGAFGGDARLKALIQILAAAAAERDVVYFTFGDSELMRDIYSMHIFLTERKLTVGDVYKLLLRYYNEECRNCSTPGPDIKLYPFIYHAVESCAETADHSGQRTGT
row,SMILES,IC50
1,Cn1cc(Cn2c(=O)c3cc(S(=O)(=O)NC4(C)CC4)sc3n(Cc3ccc4c(c3)C(=O)NC4)c2=O)cn1 [Ex 61],11 nM
2,Cc1cc(Cn2c(=O)n(Cc3cnn(C)c3)c(=O)c3cc(S(=O)(=O)NC4(C)CC4)sc32)ccc1F [Ex 135],37 nM
3,Cc1cc(Cn2c(=O)n(Cc3cnc(C)s3)c(=O)c3cc(S(=O)(=O)NC4(C)CC4)sc32)n(C)n1 [Ex 3],29 nM
4,Cn1cc(Cn2c(=O)c3cc(S(=O)(=O)NC4(C#N)CC4)sc3n(Cc3ccc4oc(CO)cc4c3)c2=O)cn1 [Ex 102],75 nM
5,Cc1ncc(Cn2c(=O)c3cc(S(=O)(=O)NC4(C)CC4)sc3n(CC3CCCO3)c2=O)s1 (stereo not shown) [Ex 15],600 nM
6,Cc1ncc(Cn2c(=O)c3cc(S(=O)(=O)NC4(C)CC4)sc3n(Cc3cnc4[nH]ccc4c3)c2=O)s1 [Ex 10],16 nM
7,CN(C)c1ccc(Cn2c(=O)n(Cc3cnn(C)c3)c(=O)c3cc(S(=O)(=O)NC4(C)CC4)sc32)cc1F [Ex 71],120 nM
8,COCCNc1ncc(Cn2c(=O)n(Cc3cnn(C)c3)c(=O)c3cc(S(=O)(=O)NC4(C)CC4)sc32)cn1 [Ex 79],70 nM
9,CN1Cc2ccc(Cn3c(=O)n(Cc4cnn(C)c4)c(=O)c4cc(S(=O)(=O)NC5(C)CC5)sc43)cc2C1=O [Ex 62],29 nM
10,Cn1cc(Cn2c(=O)c3cc(S(=O)(=O)NC4(C)CC4)sc3n(Cc3ccc(C4CC4)cc3)c2=O)cn1 [Ex 49],95 nM
11,COc1c(C)cnc(Cn2c(=O)n(Cc3cnn(C)c3)c(=O)c3cc(S(=O)(=O)NC4(C)CC4)sc32)c1C [Ex 133],1180 nM
12,Cn1cc(Cn2c(=O)c3cc(S(=O)(=O)NC4(C)CC4)sc3n(Cc3cncc(CO)c3)c2=O)cn1 [Ex 117],41 nM
13,Cn1cc(Cn2c(=O)c3cc(S(=O)(=O)NC4(C)CC4)sc3n(Cc3ccc(OC4CCC4)cc3)c2=O)cn1 [Ex 69],280 nM
14,Cn1cc(Cn2c(=O)c3cc(S(=O)(=O)NC4(C)CC4)sc3n(Cc3ccc(Oc4ccc(F)cc4)nc3)c2=O)cn1 [Ex 128],130 nM
15,Cn1cc(Cn2c(=O)c3cc(S(=O)(=O)NC4(C)CC4)sc3n(Cc3ccc(F)c(Cl)c3)c2=O)cn1 [Ex 48],120 nM
16,COc1ccc(Cn2c(=O)n(Cc3cnn(C)c3)c(=O)c3cc(S(=O)(=O)NC4(C)CC4)sc32)cn1 [Ex 44],48 nM
17,COCCN(C)c1ccc(Cn2c(=O)n(Cc3cnn(C)c3)c(=O)c3cc(S(=O)(=O)NC4(C)CC4)sc32)cc1F [Ex 75],130 nM
18,Cn1cc(Cn2c(=O)c3cc(S(=O)(=O)NC4(C)CC4)sc3n(Cc3ccc(N4CCOCC4)nc3)c2=O)cn1 [Ex 81],200 nM
19,CCNS(=O)(=O)c1cc2c(=O)n(Cc3cnc(C)s3)c(=O)n(CC3CC3)c2s1 [Ex 21],75500 nM
20,Cn1cc(Cn2c(=O)c3cc(S(=O)(=O)NC4(C)CC4)sc3n(Cc3ccc(F)c(OCCO)c3)c2=O)cn1 [Ex 122],17 nM
21,COCc1cc2cc(Cn3c(=O)n(Cc4cnn(C)c4)c(=O)c4cc(S(=O)(=O)NC5(C)CC5)sc43)ccc2[nH]1 [Ex 89],13 nM

row,SMILES,IC50
1,COCCC(=O)N1CCC(n2c(=O)n(Cc3cnn(C)c3)c(=O)c3cc(S(=O)(=O)NC4(C)CC4)sc32)CC1 [Ex 94],270 nM
2,CO[C@H]1CCN(c2ccc(Cn3c(=O)n(Cc4cnn(C)c4)c(=O)c4cc(S(=O)(=O)NC5(C)CC5)sc43)cn2)C1 [Ex 84],200 nM
3,Cc1ncc(Cn2c(=O)c3cc(S(=O)(=O)NC4(C)CC4)sc3n(CC3CCOC3)c2=O)s1 (stereo not shown) [Ex 16],970 nM
4,Cc1ncc(Cn2c(=O)c3cc(S(=O)(=O)NC(C)C)sc3n(CC3CC3)c2=O)s1 [Ex 22],93100 nM
5,Cn1cc(Cn2c(=O)c3cc(S(=O)(=O)NC4(C)CC4)sc3n(Cc3cnn(CC(F)F)c3)c2=O)cn1 [Ex 56],36 nM
6,Cc1ncc(Cn2c(=O)c3cc(S(=O)(=O)NC4(C)CC4)sc3n(CCCN)c2=O)s1 [Ex 9],1070 nM
7,Cc1ncc(Cn2c(=O)c3cc(S(=O)(=O)NC4(C)CC4)sc3n(Cc3ccc4c(c3)OCC4)c2=O)s1 [Ex 13],41 nM
8,CNc1cc(Cn2c(=O)n(Cc3cnn(C)c3)c(=O)c3cc(S(=O)(=O)NC4(C)CC4)sc32)c(F)cc1F [Ex 124],73 nM
9,Cc1ncc(Cn2c(=O)c3cc(S(=O)(=O)NC4(C)CC4)sc3n(Cc3cc4n(n3)CCOC4)c2=O)s1 [Ex 19],130 nM
10,Cc1ncc(Cn2c(=O)c3cc(S(=O)(=O)NC4(C)CC4)sc3n(Cc3ccc4cn[nH]c4c3)c2=O)s1 [Ex 5],12 nM
11,Cn1cc(Cn2c(=O)c3cc(S(=O)(=O)NC4(C)CC4)sc3n(Cc3ccc(=O)n(C)c3)c2=O)cn1 [Ex 88],23 nM
12,Cn1cc(Cn2c(=O)c3cc(S(=O)(=O)NC4(C)CC4)sc3n(Cc3ccc(F)c(C(=O)N4CCN(C(=O)C5CC5)CC4)c3)c2=O)cn1 [Ex 127],320 nM
13,Cn1cc(Cn2c(=O)c3cc(S(=O)(=O)NC4(C)CC4)sc3n(Cc3ccc4c(c3)CNC4=O)c2=O)cn1 [Ex 60],24 nM
14,Cc1cc(Cn2c(=O)n(Cc3cnn(C)c3)c(=O)c3cc(S(=O)(=O)NC4(C)CC4)sc32)n(C)n1 [Ex 30],37 nM
15,CCC(=O)N1CCC(n2c(=O)n(Cc3cnn(C)c3)c(=O)c3cc(S(=O)(=O)NC4(C)CC4)sc32)CC1 [Ex 93],180 nM
16,CC(=O)N1CCC(Cn2c(=O)n(Cc3cnn(C)c3)c(=O)c3cc(S(=O)(=O)NC4(C)CC4)sc32)CC1 [Ex 86],160 nM
17,Cn1cc(Cn2c(=O)c3cc(S(=O)(=O)NC4(C)CC4)sc3n(Cc3ccc4c(c3)NC(=O)C4)c2=O)cn1 [Ex 131],6.3 nM
18,CNc1c(F)cc(Cn2c(=O)n(Cc3cnn(C)c3)c(=O)c3cc(S(=O)(=O)NC4(C)CC4)sc32)cc1F [Ex 125],20 nM
19,CNc1ncc(Cn2c(=O)n(Cc3cnn(C)c3)c(=O)c3cc(S(=O)(=O)NC4(C)CC4)sc32)cn1 [Ex 54],49 nM
20,CN1Cc2cc(Cn3c(=O)n(Cc4cnn(C)c4)c(=O)c4cc(S(=O)(=O)NC5(C)CC5)sc43)ccc2C1=O [Ex 45],13 nM
21,COc1cc(Cn2c(=O)n(Cc3cnn(C)c3)c(=O)c3cc(S(=O)(=O)NC4(C)CC4)sc32)ccn1 [Ex 43],29 nM

row,SMILES,IC50
1,Cc1ncc(Cn2c(=O)c3cc(S(=O)(=O)NC4CC4)sc3n(CC3CC3)c2=O)s1 [Ex 24],2220 nM
2,Cn1cc(Cn2c(=O)c3cc(S(=O)(=O)NC4(C)CC4)sc3n(Cc3cnc4[nH]ccc4c3)c2=O)cn1 [Ex 37],9 nM
3,Cn1cc(Cn2c(=O)c3cc(S(=O)(=O)NC4(C)CC4)sc3n(Cc3ccc(N4CC(O)C4)nc3)c2=O)cn1 [Ex 90],17 nM
4,Cc1ncc(Cn2c(=O)c3cc(S(=O)(=O)NC4(C)CC4)sc3n(Cc3ccc4[nH]ncc4c3)c2=O)s1 [Ex 4],11 nM
5,Cn1cc(Cn2c(=O)c3cc(S(=O)(=O)NC4(C)CC4)sc3n(Cc3ccc(N4CCCC4)nc3)c2=O)cn1 [Ex 82],97 nM
6,CN(c1ccc(Cn2c(=O)n(Cc3cnn(C)c3)c(=O)c3cc(S(=O)(=O)NC4(C)CC4)sc32)cc1F)C1CC1 [Ex 74],210 nM
7,Cn1cc(Cn2c(=O)c3cc(S(=O)(=O)NC4(C)CC4)sc3n(Cc3ccc(F)c(C#N)c3)c2=O)cn1 [Ex 70],60 nM
8,Cc1ncc(Cn2c(=O)c3cc(S(=O)(=O)NC4(C)CC4)sc3n(Cc3nc4ccccc4[nH]3)c2=O)s1 [Ex 18],580 nM
9,Cn1cc(Cn2c(=O)c3cc(S(=O)(=O)NC4(C)CC4)sc3n(Cc3nc4c(s3)CCCC4)c2=O)cn1 [Ex 129],46 nM
10,CN(CCO)c1ccc(Cn2c(=O)n(Cc3cnn(C)c3)c(=O)c3cc(S(=O)(=O)NC4(C)CC4)sc32)cc1F [Ex 76],57 nM
11,Cn1cc(Cn2c(=O)c3cc(S(=O)(=O)NC4(C)CC4)sc3n(Cc3ccc4[nH]c(CO)cc4c3)c2=O)cn1 [Ex 116],15 nM
12,Cc1ncc(Cn2c(=O)c3cc(S(=O)(=O)NC4(C)CC4)sc3n(CC3CCCOC3)c2=O)s1 (stereo not shown) [Ex 17],470 nM
13,Cn1cc(Cn2c(=O)c3cc(S(=O)(=O)NC4(C)CC4)sc3n(Cc3cc4n(n3)CCOC4)c2=O)cn1 [Ex 33],35 nM
14,CN1CCC(Cn2c(=O)n(Cc3cnn(C)c3)c(=O)c3cc(S(=O)(=O)NC4(C)CC4)sc32)CC1=O (stereo not shown) [Ex 87],220 nM
15,Cn1cc(Cn2c(=O)c3cc(S(=O)(=O)NC4(C)CC4)sc3n(Cc3cnc(C#N)s3)c2=O)cn1 [Ex 35],35 nM
16,COCc1ncc(Cn2c(=O)n(Cc3cnn(C)c3)c(=O)c3cc(S(=O)(=O)NC4(C)CC4)sc32)s1 [Ex 58],260 nM
17,CC(c1ccc2c(c1)COC2)n1c(=O)n(Cc2cnn(C)c2)c(=O)c2cc(S(=O)(=O)NC3(C)CC3)sc21 (stereo not shown) [Ex 112],140 nM
18,CNS(=O)(=O)c1cc2c(=O)n(Cc3cnc(C)s3)c(=O)n(CC3CC3)c2s1 [Ex 23],97000 nM
19,Cn1cc(Cn2c(=O)c3cc(S(=O)(=O)NC4(C)CC4)sc3n(Cc3ccc(C#N)cc3)c2=O)cn1 [Ex 53],52 nM
